From ChEMBL document CHEMBL1149970, “Novel dithiocarbamate carbapenems1 with anti-MRSA activity” (Bioorg Med Chem Lett, 1997)
Values after ≈ are worked out from the molar mass of the structure shown.

How the values were obtained:
Type in all cases: functional
[1] = tested on: Enterococcus faecalis; assay: In vitro antibacterial activity against Enterococcus faecalis MB4996 organism
[2] = tested on: Pseudomonas aeruginosa; assay: In vitro antibacterial activity against Pseudomonas aeruginosa MB5002 organism
[3] = tested on: Staphylococcus aureus; assay: In vitro antibacterial activity against staphylococcus aureus 209P NIHJ JC1 organism
[4] = target: T1, Dipeptidase 1 (Sus scrofa) (UniProt P22412); assay: Relative rate of hydrolysis of porcine renal dehydropeptidase-I (DHP-I) to imipenem
T1 sequence (whole entry): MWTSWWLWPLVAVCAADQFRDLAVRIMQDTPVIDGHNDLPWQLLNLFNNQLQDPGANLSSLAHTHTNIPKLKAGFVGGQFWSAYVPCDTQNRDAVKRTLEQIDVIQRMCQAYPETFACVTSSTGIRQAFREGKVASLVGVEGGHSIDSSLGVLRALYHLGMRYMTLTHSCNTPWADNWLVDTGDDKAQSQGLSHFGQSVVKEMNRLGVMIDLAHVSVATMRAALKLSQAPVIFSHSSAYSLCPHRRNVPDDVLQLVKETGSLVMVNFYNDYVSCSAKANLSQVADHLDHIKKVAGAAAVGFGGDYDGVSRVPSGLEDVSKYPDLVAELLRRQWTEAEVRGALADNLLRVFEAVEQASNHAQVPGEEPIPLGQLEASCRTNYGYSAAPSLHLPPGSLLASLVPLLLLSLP

[5] = tested on: Staphylococcus aureus; assay: In vitro antibacterial activity against staphylococcus aureus BB6294 organism (Methicillin-resistant strain)
[6] = tested on: Staphylococcus aureus; assay: In vitro antibacterial activity against staphylococcus aureus CSa1009 (Methicillin-resistant strain and b beta-Lactamase producing strain)
[7] = tested on: Staphylococcus epidermidis; assay: In vitro antibacterial activity against Staphylococcus epidermidis MB5181a organism
[8] = tested on: Escherichia coli; assay: In vitro antibacterial activity against Escherichia coli NIHJ JC2 organism
[9] = Staphylococcus epidermidis, read-out: MIC

Row | Compound | MIC [1] | MIC [2] | MIC [3] | DHP-I susceptibility [4] | MIC [5] | MIC [6] | MIC [7, 9] | MIC [8] | MIC [7]
1 | CCCN(C)C(=S)SC1=C(C(=O)O)N2C(=O)[C@H]([C@@H](C)O)[C@H]2[C@H]1C | 6.25 µg/mL (≈ 17.4 µM) | 25 µg/mL (≈ 69.7 µM) | 0.025 µg/mL (≈ 0.0697 µM) | 2.71 | 3.13 µg/mL (≈ 8.73 µM) | 3.13 µg/mL (≈ 8.73 µM) | 3.13 µg/mL (≈ 8.73 µM) | 25 µg/mL (≈ 69.7 µM) | 
2 | C=CCN(CCCO)C(=S)SC1=C(C(=O)O)N2C(=O)[C@H]([C@@H](C)O)[C@H]2[C@H]1C | 6.25 µg/mL (≈ 15.6 µM) | > 25 µg/mL | 0.025 µg/mL (≈ 0.0624 µM) | 1.39 | 3.13 µg/mL (≈ 7.81 µM) | 3.13 µg/mL (≈ 7.81 µM) |  | 12.5 µg/mL (≈ 31.2 µM) | 3.13 pug ml-1
3 | CCN(C)C(=S)SC1=C(C(=O)O)N2C(=O)[C@H]([C@@H](C)O)[C@H]2[C@H]1C | 6.25 µg/mL (≈ 18.1 µM) | > 25 µg/mL | 0.025 µg/mL (≈ 0.0726 µM) | 2.26 | 3.13 µg/mL (≈ 9.09 µM) | 3.13 µg/mL (≈ 9.09 µM) | 3.13 µg/mL (≈ 9.09 µM) | 6.25 µg/mL (≈ 18.1 µM) | 
4 | C[C@@H](O)[C@H]1C(=O)N2C(C(=O)O)=C(SC(=S)N3CCC3)[C@H](C)[C@H]12 | 6.25 µg/mL (≈ 18.3 µM) | > 25 µg/mL | 0.025 µg/mL (≈ 0.073 µM) | 3.03 | 3.13 µg/mL (≈ 9.14 µM) | 6.25 µg/mL (≈ 18.3 µM) | 6.25 µg/mL (≈ 18.3 µM) | 3.13 µg/mL (≈ 9.14 µM) | 
5 | C[C@@H](O)[C@H]1C(=O)N2C(C(=O)O)=C(SC(=S)N3CCCCCC3)[C@H](C)[C@H]12 | 6.25 µg/mL (≈ 16.3 µM) | > 25 µg/mL | 0.012 µg/mL (≈ 0.0312 µM) | 3.09 | 1.56 µg/mL (≈ 4.06 µM) | 1.56 µg/mL (≈ 4.06 µM) | 1.56 µg/mL (≈ 4.06 µM) | > 25 µg/mL | 
6 | C[C@@H](O)[C@H]1C(=O)N2C(C(=O)O)=C(SC(=S)N(C)Cc3ccccc3)[C@H](C)[C@H]12 | 1.56 µg/mL (≈ 3.84 µM) | > 25 µg/mL | 0.012 µg/mL (≈ 0.0295 µM) | 1.94 | 1.56 µg/mL (≈ 3.84 µM) | 1.56 µg/mL (≈ 3.84 µM) | 3.13 µg/mL (≈ 7.7 µM) | 12.5 µg/mL (≈ 30.7 µM) | 
7 | C[C@@H](O)[C@H]1C(=O)N2C(C(=O)O)=C(SC(=O)N3CCCC3)[C@H](C)[C@H]12 |  |  | 0.05 µg/mL (≈ 0.147 µM) | 0.65 | 25 µg/mL (≈ 73.4 µM) | 25 µg/mL (≈ 73.4 µM) | 25 µg/mL (≈ 73.4 µM) |  | 
8 | C[C@@H](O)[C@H]1C(=O)N2C(C(=O)O)=C(SC(=S)N(C)c3cccs3)[C@H](C)[C@H]12 | 3.13 µg/mL (≈ 7.85 µM) | > 25 µg/mL | < 0.006 µg/mL | 2.05 | 1.56 µg/mL (≈ 3.91 µM) | 3.13 µg/mL (≈ 7.85 µM) | 0.78 µg/mL (≈ 1.96 µM) | 12.5 µg/mL (≈ 31.4 µM) | 
9 | C[C@@H](O)[C@H]1C(=O)N2C(C(=O)[O-])=C(SC(=S)N3CC[N+](C)(C)CC3)[C@H](C)[C@H]12 | 1.56 µg/mL (≈ 3.9 µM) | > 25 µg/mL | 0.012 µg/mL (≈ 0.03 µM) | 0.11 | 3.13 µg/mL (≈ 7.83 µM) | 12.5 µg/mL (≈ 31.3 µM) | 3.13 µg/mL (≈ 7.83 µM) | 0.1 µg/mL (≈ 0.25 µM) | 
10 | CCN(CC)C(=S)SC1=C(C(=O)O)N2C(=O)[C@H]([C@@H](C)O)[C@H]2[C@H]1C | 12.5 µg/mL (≈ 34.9 µM) | 25 µg/mL (≈ 69.7 µM) | 0.025 µg/mL (≈ 0.0697 µM) | 2.51 | 3.13 µg/mL (≈ 8.73 µM) | 3.13 µg/mL (≈ 8.73 µM) | 3.13 µg/mL (≈ 8.73 µM) | 25 µg/mL (≈ 69.7 µM) | 
11 | C[C@@H](O)[C@H]1C(=O)N2C(C(=O)O)=C(SC(=S)N3CCC(O)CC3)[C@H](C)[C@H]12 | 6.25 µg/mL (≈ 16.2 µM) | > 25 µg/mL | 0.025 µg/mL (≈ 0.0647 µM) | 2.23 | 6.25 µg/mL (≈ 16.2 µM) | 6.25 µg/mL (≈ 16.2 µM) | 6.25 µg/mL (≈ 16.2 µM) | 3.13 µg/mL (≈ 8.1 µM) | 
12 | C[C@@H](O)[C@H]1C(=O)N2C(C(=O)O)=C(SC(=S)N3CCC(O)C3)[C@H](C)[C@H]12 (stereo partly drawn) | 6.25 µg/mL (≈ 16.8 µM) | > 25 µg/mL | 0.025 µg/mL (≈ 0.0671 µM) | 2.21 | 6.25 µg/mL (≈ 16.8 µM) | 6.25 µg/mL (≈ 16.8 µM) | 3.13 µg/mL (≈ 8.4 µM) | 0.78 µg/mL (≈ 2.09 µM) | 
13 | C[C@@H](O)[C@H]1C(=O)N2C(C(=O)O)=C(SC(=S)N3CCCCC3)[C@H](C)[C@H]12 | 6.25 µg/mL (≈ 16.9 µM) | > 25 µg/mL | 0.025 µg/mL (≈ 0.0675 µM) | 3.1 | 1.56 µg/mL (≈ 4.21 µM) | 3.13 µg/mL (≈ 8.45 µM) | 3.13 µg/mL (≈ 8.45 µM) | 25 µg/mL (≈ 67.5 µM) | 
14 | CCN(CCO)C(=S)SC1=C(C(=O)O)N2C(=O)[C@H]([C@@H](C)O)[C@H]2[C@H]1C | 6.25 µg/mL (≈ 16.7 µM) | > 25 µg/mL | 0.025 µg/mL (≈ 0.0668 µM) | 2.38 | 6.25 µg/mL (≈ 16.7 µM) | 6.25 µg/mL (≈ 16.7 µM) | 3.13 µg/mL (≈ 8.36 µM) | 6.25 µg/mL (≈ 16.7 µM) | 
15 | C[C@@H](O)[C@H]1C(=O)N2C(C(=O)O)=C(SC(=S)N(C)c3ccccc3)[C@H](C)[C@H]12 | 6.25 µg/mL (≈ 15.9 µM) | > 25 µg/mL | 0.05 µg/mL (≈ 0.127 µM) | 2.29 | 1.56 µg/mL (≈ 3.97 µM) | 3.13 µg/mL (≈ 7.97 µM) | 1.56 µg/mL (≈ 3.97 µM) | > 25 µg/mL | 
16 | C[C@@H](O)[C@H]1C(=O)N2C(C(=O)O)=C(SC(=S)N3CCCC3)C[C@H]12 |  |  | 0.025 µg/mL (≈ 0.073 µM) | 11.7 | 6.25 µg/mL (≈ 18.3 µM) | 25 µg/mL (≈ 73 µM) | 12.5 µg/mL (≈ 36.5 µM) |  | 
17 | C[C@@H](O)[C@H]1C(=O)N2C(C(=O)O)=C(SC(=S)N3CC(O)C3)[C@H](C)[C@H]12 | 12.5 µg/mL (≈ 34.9 µM) | > 25 µg/mL | 0.025 µg/mL (≈ 0.0697 µM) | 2.32 | 6.25 µg/mL (≈ 17.4 µM) | 6.25 µg/mL (≈ 17.4 µM) | 3.13 µg/mL (≈ 8.73 µM) | 0.78 µg/mL (≈ 2.18 µM) | 
18 | C[C@@H](O)[C@H]1C(=O)N2C(C(=O)O)=C(SC(=S)N3CCN(C)CC3)[C@H](C)[C@H]12 | 6.25 µg/mL (≈ 16.2 µM) | > 25 µg/mL | 0.025 µg/mL (≈ 0.0648 µM) | 1.53 | 3.13 µg/mL (≈ 8.12 µM) | 6.25 µg/mL (≈ 16.2 µM) | 3.13 µg/mL (≈ 8.12 µM) | 1.56 µg/mL (≈ 4.05 µM) | 
